From patent US10221163B2 (priority 2015, dated 2019)
pIC50: −log10 of the molar value. Where two headings read alike, the source gives them in different places.

How the values were obtained:
[1] = system: Pseudomonas aeruginosa efflux+ (MB9798), IMP-1; type: cell-based; conditions: concentration restoring susceptibility to imipenem at 2 μg/mL in the presence of a class A, C, D serine β-lactamase inhibitor closely related to relebactam
Outline: (§1)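 P. aeruginosa PAO1-derived IMP-1 strains, efflux+ MB9798 and efflux− MB9799, tested by standard microbroth MIC with imipenem and/or ceftazidime fixed, usually at CLSI breakpoint, plus fixed class A/C β-lactamase inhibitor against AmpC. Inhibitor titrated; concentration restoring susceptibility recorded; MB9798/MB9799 fold difference indicates efflux.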

[2] = system: Pseudomonas aeruginosa efflux− (MB9799), IMP-1; type: cell-based; conditions: concentration restoring susceptibility to imipenem at 2 μg/mL in the presence of a class A, C, D serine β-lactamase inhibitor closely related to relebactam
Outline: as §1

VIM-1 = VIM-1 (Pseudomonas aeruginosa (strain ATCC 15692 / DSM 22644 / CIP 104116 / JCM 14847 / LMG 12228 / 1C / PRS 101 / PAO1), UniProt A0A0F7KYQ8); experiment: biochemical; conditions: CCF2-FA substrate, 30 pM enzyme, 2 hours at 25° C.
Outline: (§2)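 Enzyme activity was measured by fluorescence using CCF2-FA, a cephalosporin-linked 7-hydroxycoumarin/fluorescein substrate, with inhibitor, metallo-β-lactamase and substrate incubated together for 2 hours at 25° C. IC50 came from a 4-parameter fit of inhibition versus log inhibitor concentration.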

[3] = system: Pseudomonas aeruginosa MB9798 vs MB9799; conditions: ratio MITC95 PA_9798/MITC95 PA_9799
Outline: as §1

NDM-1 = NDM-1 (Klebsiella pneumoniae, UniProt C7C422); experiment: biochemical; type: biochemical; conditions: fluorescence assay, CCF2-FA substrate, 1 pM enzyme, 2 hours at 25° C.; read-out: NDM-1 IC50
Outline: as §2

IMP-1 = IMP-1 (Serratia marcescens, UniProt P52699); experiment: biochemical; type: biochemical; conditions: fluorescence assay, CCF2-FA substrate, 2 pM enzyme, 2 hours at 25° C.; read-out: IMP-1 IC50
Outline: as §2

[4] = system: Serratia marcescens expressing IMP-1 (CL5741); type: cell-based; conditions: IMP-1 strain CL5741, with imipenem 1 μg/ml, 95% inhibition of growth
Outline: (§3)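 Growth by absorbance after 22–24 h at 35°C defined the read-out, with imipenem fixed at 1 μg/ml alongside compound. Inocula came from overnight blood-agar colonies at 35°C, resuspended in saline and diluted 1:100 in 1.1×CAMHB.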

[5] = system: Klebsiella pneumoniae expressing VIM-1 (IHMA599644); type: cell-based; conditions: VIM-1 strain IHMA599644, with imipenem 1 μg/ml, 95% inhibition of growth
Outline: as §3

[6] = system: Escherichia coli expressing NDM-1 (CLB30005, CLB30016); type: cell-based; conditions: NDM-1 strain, with imipenem 1 μg/ml, 95% inhibition of growth
Outline: as §3

[7] = fluorescence assay, read-out: VIM-1 IC50

Sequence of NDM-1 (C7C422 whole entry, looked up, species assumed): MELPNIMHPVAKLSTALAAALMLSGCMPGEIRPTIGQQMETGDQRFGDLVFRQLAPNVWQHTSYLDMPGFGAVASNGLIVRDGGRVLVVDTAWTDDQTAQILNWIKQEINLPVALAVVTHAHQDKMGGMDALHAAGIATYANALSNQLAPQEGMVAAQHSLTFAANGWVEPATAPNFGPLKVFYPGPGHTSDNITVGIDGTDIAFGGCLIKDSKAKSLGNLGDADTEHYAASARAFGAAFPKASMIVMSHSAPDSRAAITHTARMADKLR
Sequence of IMP-1 (P52699 whole entry, looked up, species assumed): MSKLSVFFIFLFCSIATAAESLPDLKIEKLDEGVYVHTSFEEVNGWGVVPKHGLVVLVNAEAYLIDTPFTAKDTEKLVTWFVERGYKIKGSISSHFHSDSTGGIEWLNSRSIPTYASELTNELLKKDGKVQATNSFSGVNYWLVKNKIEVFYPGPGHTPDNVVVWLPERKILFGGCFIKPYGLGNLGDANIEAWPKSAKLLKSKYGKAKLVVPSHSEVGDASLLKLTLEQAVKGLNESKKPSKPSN

Row | Compound | P. aeruginosa expressing IMP-1, efflux + (MB9798) MITC95 [1] [µM] | P. aeruginosa expressing IMP-1, efflux − (MB9799) MITC95 [2] [µM] | pIC50 (VIM-1; [7]) | Efflux ratio [3] | pIC50 (NDM-1) | pIC50 (IMP-1) | Serratia marcescens MITC95 [4] [µM] | Klebsiella pneumoniae MITC95 [5] [µM] | Escherichia coli MITC95 [6] [µM] | pIC50 (VIM-1; VIM-1 IC50, fluorescence assay)
1 | NCCNS(=O)(=O)c1ccc(-c2cccc(NC[C@@H](N)CO)c2)c(-c2nn[nH]n2)c1S(N)(=O)=O [Example 349, (R)-3′-((2-amino-3-hydroxypropyl)amino)-N4-(2-aminoethyl)-2-(2H-tetrazol-5-yl)-[1,1′-biphenyl]-3,4-disulfonamide] | 1.563 | 0.7813 | 9.36 | 2.00 | 8.79 | 8.25 | 1.563 | 1.563 | 1.563 | 
2 | NCCNS(=O)(=O)c1ccc(-c2cccc(NC[C@H](N)CO)c2)c(-c2nn[nH]n2)c1S(N)(=O)=O [Example 350, (S)-3′-((2-amino-3-hydroxypropyl)amino)-N4-(2-aminoethyl)-2-(2H-tetrazol-5-yl)-[1,1′-biphenyl]-3,4-disulfonamide] | 0.7813 | 0.7813 | 9.38 | 1.00 | 8.76 | 8.36 | 0.7813 | 0.7813 | 0.7813 | 
3 | NCCNS(=O)(=O)c1ccc(-c2cccc(NC[C@H](O)CN)c2)c(-c2nn[nH]n2)c1S(N)(=O)=O [Example 351, (R)-3′-((3-amino-2-hydroxypropyl)amino)-N4-(2-aminoethyl)-2-(2H-tetrazol-5-yl)-[1,1′-biphenyl]-3,4-disulfonamide] | 1.563 | 0.7813 |  | 2.00 | 8.87 | 8.45 | 1.563 | 1.563 | 0.7813 | 9.34
4 | NCCNS(=O)(=O)c1ccc(-c2cccc(NC[C@@H](O)CN)c2)c(-c2nn[nH]n2)c1S(N)(=O)=O [Example 352, (S)-3′-((3-amino-2-hydroxypropyl)amino)N4-(2-aminoethyl)-2-(2H-tetrazol-5-yl)-[1,1′-biphenyl]-3,4-disulfonamide] | 1.563 | 0.7813 |  | 2.00 | 8.85 | 8.36 | 1.563 | 1.563 | 0.7813 | 9.42
5 | NCCNS(=O)(=O)c1ccc(-c2cccc(-c3c[nH]c(N)n3)c2)c(-c2nn[nH]n2)c1S(N)(=O)=O [Example 353, 3′-(2-amino-1H-imidazol-4-yl)-N4-(2-aminoethyl)-2-(2H-tetrazol-5-yl)-[1,1′-biphenyl]-3,4-disulfonamide] | 1.563 | 0.7813 | 9.24 | 2.00 | 9.59 | 8.94 | 0.7813 | 1.563 | 0.3906 | 
6 | NCCNS(=O)(=O)c1ccc(-c2cccc(SCC(N)CO)c2)c(-c2nn[nH]n2)c1S(N)(=O)=O (stereo not drawn) [Example 354, 3′-((2-amino-3-hydroxypropyl)thio)-N4-(2-aminoethyl)-2-(2H-tetrazol-5-yl)-[1,1′-biphenyl]-3,4-disulfonamide] | 1.563 | 0.3906 | 9.97 | 4.00 | 9.09 | 9.34 | 1.563 | 0.7813 | 0.3906 | 
